Reference: US10683296B2, “TLR7 agonist trifluoroacetate salt and crystalline form B thereof, preparation methods and uses” (CHIA TAI TIANQING PHARMACEUTICAL GROUP CO., LTD., priority 2016, dated 2020)

Legend:
[1] = Stability tests of crystal form B (high temperature, high humidity, light); assay type: physicochemical; conditions: general statement; no data of Examples 2-4 printed
Procedure: The crystal form B prepared in Example 1 was tested in the accelerated test under high temperature conditions for stability in accordance with Guidelines for the Stability Test of Pharmaceutical Ingredients and Pharmaceutical Preparations (Chinese Pharmacopoeia 2010 Appendix XIXC).
The crystal form B was placed in an open-clean container at 60° C. The samples were taken for test on day 10, day 20 and day 30, respectively. The results were compared with the initial test result on day 0.
The crystal form B prepared in Example 1 was tested in the accelerated test under high humidity conditions for stability in accordance with Guidelines for the Stability Test of Pharmaceutical Ingredients and Pharmaceutical Preparations (Chinese Pharmacopoeia 2010 Appendix XIXC).
The crystal form B was subjected to an accelerated test in a constant temperature and humidity vessel under the conditions of 40° C./75% humidity (open). The samples were taken for test on day 30, day 60 and day 90, respectively. The results were compared with the initial test result on day 0.
The crystal form B prepared in Example 1 under light conditions was tested for stability in accordance with Guidelines for the Stability Test of Pharmaceutical Ingredients and Pharmaceutical Preparations (Chinese Pharmacopoeia 2010 Appendix XIXC).
The crystal form B was placed in an illumination environment of 5000 Lx±500 Lx. […]

[2] = test system: human peripheral blood mononuclear cells (PBMC); test: Peripheral blood mononuclear cell cytokine stimulating test; assay type: cell-based; conditions: for TNF-α MEC / IFN-α MEC: human PBMC, 24 h, CBA flow cytometry; for IFN-α MEC: lowest drug concentration stimulating the production of 30 pg/mL of IFN-α
Procedure: The purpose of this example is to determine the expression level of cytokines 24 h after stimulation to human peripheral blood mononuclear cells (PBMC) with the compound of formula I.
The cell supernatant was assayed without dilution and the levels of IFN-α were directly determined. The compound of formula was firstly formulated into 20 mM DMSO stock solution and was gradient diluted with cell medium in 10-fold with the total number of 11 diluting points. The compounds in 9 diluting points (the highest concentration was 200 μmol/L) were added into 96-well plate with 50 μL in each well. Fresh human peripheral blood mononuclear cells were inoculated, with 150 μL in each well containing 450,000 cells. The cell culture plate was incubated in an incubator at 37° C., 5% CO2 for 24 h. After incubation, the culture plate was centrifuged at 1200 rpm for 5 min and the supernatant was collected and stored at −20° C. for determination. The determination of cytokine was performed using Cytometric Bead Array (CBA) of BD-Pharmingen on flow cytometer. Using the above determining method, the lowest drug concentration stimulating the production of 30 pg/mL of IFN-α was designated as the MEC value in the cytokine stimulating test.

[3] = biological target: T1, Toll-like receptor 7 (HEK-blue hTLR7 cell) (Homo sapiens, UniProt Q9NYK1); test: Toll-like receptor 7 in vitro receptor binding activity screen (HEK-blue hTLR7 cell, alkaline phosphatase reporter); assay type: cell-based; conditions: versus control GS-9620
T1 construct: host or cells: HEK-blue hTLR7 cell (HEK293-derived reporter line)
T1 sequence (Q9NYK1 27-1049): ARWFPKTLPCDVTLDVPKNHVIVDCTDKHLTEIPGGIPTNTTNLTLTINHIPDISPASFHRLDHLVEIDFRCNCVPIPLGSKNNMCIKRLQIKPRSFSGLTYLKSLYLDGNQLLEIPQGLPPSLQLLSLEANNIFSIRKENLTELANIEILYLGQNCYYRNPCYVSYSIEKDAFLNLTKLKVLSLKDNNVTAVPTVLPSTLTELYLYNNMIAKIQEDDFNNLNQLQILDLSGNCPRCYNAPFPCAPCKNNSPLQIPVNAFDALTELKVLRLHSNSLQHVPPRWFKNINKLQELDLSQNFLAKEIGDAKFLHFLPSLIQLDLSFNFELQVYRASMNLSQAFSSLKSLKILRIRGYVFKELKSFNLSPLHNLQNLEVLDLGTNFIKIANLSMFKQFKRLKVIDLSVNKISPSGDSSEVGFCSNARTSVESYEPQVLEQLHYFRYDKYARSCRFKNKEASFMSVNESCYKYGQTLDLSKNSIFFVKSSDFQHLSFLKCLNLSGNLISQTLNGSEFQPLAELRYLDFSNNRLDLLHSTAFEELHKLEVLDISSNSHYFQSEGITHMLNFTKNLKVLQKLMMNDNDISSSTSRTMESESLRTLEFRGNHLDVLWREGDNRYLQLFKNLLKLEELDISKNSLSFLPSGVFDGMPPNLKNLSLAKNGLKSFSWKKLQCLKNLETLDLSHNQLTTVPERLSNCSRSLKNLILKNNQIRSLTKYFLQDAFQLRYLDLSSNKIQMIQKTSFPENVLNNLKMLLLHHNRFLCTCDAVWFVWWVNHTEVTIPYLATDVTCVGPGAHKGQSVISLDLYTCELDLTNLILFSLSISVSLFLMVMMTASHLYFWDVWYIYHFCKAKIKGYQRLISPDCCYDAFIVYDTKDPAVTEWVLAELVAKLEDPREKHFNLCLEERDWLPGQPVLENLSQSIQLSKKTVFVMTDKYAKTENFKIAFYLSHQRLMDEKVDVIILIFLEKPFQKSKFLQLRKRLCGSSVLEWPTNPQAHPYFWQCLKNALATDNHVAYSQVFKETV
Procedure: (§1) • HEK-blue hTLR7 cell and HEK-blue hTLR8 cell (available from InvivoGen) • DMEM medium • heat inactivated fetal bovine serum • Anti Mycoplasma reagent Normocin™ • bleomycin • blasticidin
(§2) The structures of GS-9620 and R848 used are as follows, wherein the preparation of GS-9620 could be referred to the process disclosed in US20100143301; R848 was commercially available from ABGENT (IMG-2208, specification: 0.5 mg).
(§3) The compounds were gradient diluted with DMSO in 3-fold using liquid work station POD starting at a concentration of 10 mmol/L and 10 points were diluted (2nd column to 11th column, and each point was duplicated). At 12th column, 1 μL of 5 mg/mL positive compound R848 was added as positive control; and at 1st column, 1 μL of DMSO was added as negative control. Each well contained 1 μL of DMSO. • 2. The cells in culture flask were collected and the cell density was diluted to 250,000 cells/mL. • 3. 200 μL (50,000 cells/well) of cell suspension was added into prepared compound plate and the final concentration of DMSO in each well was 0.5%. • 4. The culture plates containing cells and the compounds were incubated in CO2 incubator for 24 h at 37° C., 5% CO2. • 5. […] After 1 h, the content of alkaline phosphatase in 20 μL of supernatant was determined using Microplate Reader OD650. • 7. […]

[4] = biological target: T2, Toll-like receptor 8 (HEK-blue hTLR8 cell) (Homo sapiens, UniProt Q9NR97); test: Toll-like receptor 8 in vitro receptor binding activity screen (HEK-blue hTLR8 cell, alkaline phosphatase reporter); assay type: cell-based; conditions: versus control GS-9620
T2 construct: host or cells: HEK-blue hTLR8 cell (HEK293-derived reporter line)
T2 sequence (Q9NR97 27-1041): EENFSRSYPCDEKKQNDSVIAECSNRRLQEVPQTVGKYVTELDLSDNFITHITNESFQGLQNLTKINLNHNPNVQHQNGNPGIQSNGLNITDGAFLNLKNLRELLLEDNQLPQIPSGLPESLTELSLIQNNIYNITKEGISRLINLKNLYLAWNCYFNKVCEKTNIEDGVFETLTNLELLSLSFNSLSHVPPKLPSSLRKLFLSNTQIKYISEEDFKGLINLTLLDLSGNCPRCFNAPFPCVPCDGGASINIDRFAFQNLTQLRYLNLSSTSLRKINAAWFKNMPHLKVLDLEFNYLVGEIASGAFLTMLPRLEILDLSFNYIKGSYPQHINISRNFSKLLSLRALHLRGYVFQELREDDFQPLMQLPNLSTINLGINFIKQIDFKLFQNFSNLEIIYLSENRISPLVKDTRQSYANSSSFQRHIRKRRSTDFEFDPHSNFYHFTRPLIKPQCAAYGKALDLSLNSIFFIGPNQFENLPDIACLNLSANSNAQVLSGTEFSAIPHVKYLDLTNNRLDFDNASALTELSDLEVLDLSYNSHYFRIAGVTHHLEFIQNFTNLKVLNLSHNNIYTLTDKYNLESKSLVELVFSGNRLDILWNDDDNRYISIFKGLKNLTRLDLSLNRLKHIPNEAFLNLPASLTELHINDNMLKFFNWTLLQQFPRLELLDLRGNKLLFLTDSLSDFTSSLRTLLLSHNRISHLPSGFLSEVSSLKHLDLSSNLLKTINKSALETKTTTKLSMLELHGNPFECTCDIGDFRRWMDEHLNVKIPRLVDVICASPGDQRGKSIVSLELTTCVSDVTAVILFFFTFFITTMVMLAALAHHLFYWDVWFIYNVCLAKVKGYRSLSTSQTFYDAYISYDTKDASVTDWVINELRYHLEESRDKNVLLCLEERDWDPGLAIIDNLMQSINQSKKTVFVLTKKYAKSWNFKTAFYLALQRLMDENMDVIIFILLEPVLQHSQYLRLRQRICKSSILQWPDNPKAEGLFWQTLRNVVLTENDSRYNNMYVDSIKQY
Procedure: as §1, §2, §3

Compound: CCCCOc1nc(N)c2[nH]cc(Cc3ccc(CN4CCCC4)cc3)c2n1.O=C(O)C(F)(F)F [Crystal Form B of Trifluoroacetate of 2-butoxy-7-(4-(pyrrolidin-1-ylmethyl)benzyl)-5H-pyrrolo[3,2-d]pyrimidin-4-amine]
- stability of the crystal form [1]: good stability

Compound: CCCCOc1nc(N)c2c(n1)N(Cc1cccc(CN3CCCC3)c1)CC(=O)N2 [GS-9620, reference compound]
- TNF-α MEC [2]: 500 nM
- IFN-α MEC [2]: 50 nM

Compound: CCCCOc1nc(N)c2[nH]cc(Cc3ccc(CN4CCCC4)cc3)c2n1 [The compound of formula I, 2-butoxy-7-(4-(pyrrolidin-1-ylmethyl)benzyl)-5H-pyrrolo[3,2-d]pyrimidin-4-amine]
- in vitro receptor binding activity to Toll-like receptor 7 compared with the control GS-9620 [3]: higher
- in vitro receptor binding activity to Toll-like receptor 8 compared with the control GS-9620 [4]: lower
- TNF-α MEC [2]: 500 nM
- IFN-α MEC [2]: 5 nM
- TNF-α inducing activity compared with the control GS-9620 ([2]; versus control GS-9620): comparable
- in vitro IFN-α inducing activity of PBMCs compared with the control GS-9620 ([2]; versus control GS-9620): better
